# Experimental data reported in patent publication US20250282734A1 (Bayer Aktiengesellschaft, priority 2021, published 2025).
# What was measured:
# [1] = Hygroscopy, dynamic vapour sorption (DVS) isotherms (Example 15); format: physicochemical
# Procedure: Water sorption isotherms were determined using a DVS Resolution gravimetric sorption analyzer (London, UK), or a DVS Intrinsic instrument (Surface measurement Systems). The sample was dried for 1000 minutes at 0% relative humidity (R.H.). Afterwards the dry weight was recorded. […] The equilibrium criterion for each relative humidity set point was 0.002% per minute relative mass change as a function of time.
# [2] = Solubility of cholinate vs free acid and other salts, shake-flask method (Example 14); format: physicochemical
# Procedure: (§1) Preparation of FaSSIF (Fasted State Simulated Intestinal Fluid) blank solution: 4.2 g NaOH, 44.7 g NaH2PO4*2 H2O, and 61.86 g NaCl were dissolved in approximately 9.5 L demineralized water. Then, the pH of this solution was adjusted to 6.50+/−0.05 using HCl or NaOH, respectively. In the last step, the final volume was adjusted to 10.0 L by the addition of demineralized water.
# Preparation of the final FaSSIF solution: 4.48 g SIF (Simulated Intestinal Fluids) powder (provider: biorelevant.com, Product code: FFF01 (May 2022)) were dissolved in approximately 500 mL FaSSIF blank solution, then the final volume was adjusted to 2.0 L by the addition of FaSSIF blank solution. After 2 hours, the solution was considered to be ready to use and was used within 48 hours.
# as §1, with “FeSSIF (Fed” for “FaSSIF (Fasted”, “40.4” for “4.2”, “118.74” for “44.7”, “NaCl,” for “NaH2PO4*2 H2O,”, “82.4 mL glacial acetic acid” for “61.86 g NaCl”, “5.00+/−0.05” for “6.50+/−0.05”
# Preparation of the final FeSSIF solution: 22.4 g SIF powder (provider: biorelevant.com, Product code: FFF01 (May 2022)) were dissolved in approximately 500 mL FeSSIF blank solution, then the final volume was adjusted to 2.0 L by the addition of FeSSIF blank solution. The solution was considered to be ready to use immediately after manufacturing and was used within 48 hours.
compound,measurement,setting,value
"N=C(N)NCCC[C@H](N)C(=O)O.O=C(O)c1cc(NC(=O)C2(c3ccc(C(F)(F)F)cc3F)CC2)ccc1-c1cnn(C2CCC2)c1 [Arginine Salt, Arginine salt of 2-(1-cyclobutyl-1H-pyrazol-4-yl)-5-[({1-[2-fluoro-4-(trifluoromethyl)phenyl]cyclopropyl}carbonyl)amino]benzoate]","Change in mass [%], Desorption",[1]; 0% Relative humidity,31.74%
same,"Change in mass [%], Sorption",[1]; 0% Relative humidity,0.00%
same,"Change in mass [%], Desorption",[1]; 10% Relative humidity,20.17%
same,"Change in mass [%], Sorption",[1]; 10% Relative humidity,1.39%
same,"Change in mass [%], Desorption",[1]; 20% Relative humidity,12.15%
same,"Change in mass [%], Sorption",[1]; 20% Relative humidity,2.13%
same,"Change in mass [%], Desorption",[1]; 30% Relative humidity,10.78%
same,"Change in mass [%], Sorption",[1]; 30% Relative humidity,2.98%
same,"Change in mass [%], Desorption",[1]; 40% Relative humidity,10.09%
same,"Change in mass [%], Sorption",[1]; 40% Relative humidity,4.25%
same,"Change in mass [%], Desorption",[1]; 50% Relative humidity,9.59%
same,"Change in mass [%], Sorption",[1]; 50% Relative humidity,5.72%
same,"Change in mass [%], Desorption",[1]; 60% Relative humidity,9.10%
same,"Change in mass [%], Sorption",[1]; 60% Relative humidity,7.20%
same,"Change in mass [%], Desorption",[1]; 70% Relative humidity,6.12%
same,"Change in mass [%], Sorption",[1]; 70% Relative humidity,9.40%
same,"Change in mass [%], Desorption",[1]; 80% Relative humidity,4.54%
same,"Change in mass [%], Sorption",[1]; 80% Relative humidity,13.25%
same,"Change in mass [%], Desorption",[1]; 90% Relative humidity,2.87%
same,"Change in mass [%], Sorption",[1]; 90% Relative humidity,20.10%
same,"Change in mass [%], Desorption",[1]; 95% Relative humidity,1.60%
same,"Change in mass [%], Sorption",[1]; 95% Relative humidity,31.74%
"O=C([O-])c1cc(NC(=O)C2(c3ccc(C(F)(F)F)cc3F)CC2)ccc1-c1cnn(C2CCC2)c1.[K+] [Potassium salt, Potassium 2-(1-cyclobutyl-1H-pyrazol-4-yl)-5-[({1-[2-fluoro-4-(trifluoromethyl)phenyl]cyclopropyl}carbonyl)amino]benzoate]","Change in mass [%], Desorption",[1]; 0% Relative humidity,67.05%
same,"Change in mass [%], Sorption",[1]; 0% Relative humidity,1.84%
same,"Change in mass [%], Desorption",[1]; 10% Relative humidity,36.40%
same,"Change in mass [%], Sorption",[1]; 10% Relative humidity,3.33%
same,"Change in mass [%], Desorption",[1]; 20% Relative humidity,21.86%
same,"Change in mass [%], Sorption",[1]; 20% Relative humidity,4.12%
same,"Change in mass [%], Desorption",[1]; 30% Relative humidity,15.18%
same,"Change in mass [%], Sorption",[1]; 30% Relative humidity,5.53%
same,"Change in mass [%], Desorption",[1]; 40% Relative humidity,11.85%
same,"Change in mass [%], Sorption",[1]; 40% Relative humidity,8.59%
same,"Change in mass [%], Desorption",[1]; 50% Relative humidity,9.24%
same,"Change in mass [%], Sorption",[1]; 50% Relative humidity,11.39%
same,"Change in mass [%], Desorption",[1]; 60% Relative humidity,6.66%
same,"Change in mass [%], Sorption",[1]; 60% Relative humidity,14.10%
same,"Change in mass [%], Desorption",[1]; 70% Relative humidity,4.31%
same,"Change in mass [%], Sorption",[1]; 70% Relative humidity,17.79%
same,"Change in mass [%], Desorption",[1]; 80% Relative humidity,2.92%
same,"Change in mass [%], Sorption",[1]; 80% Relative humidity,24.21%
same,"Change in mass [%], Desorption",[1]; 90% Relative humidity,1.40%
same,"Change in mass [%], Sorption",[1]; 90% Relative humidity,37.54%
same,"Change in mass [%], Desorption",[1]; 95% Relative humidity,0.00%
same,"Change in mass [%], Sorption",[1]; 95% Relative humidity,67.05%
same,DVS Dm @ 30% R.H. (Sorption),"[1]; summarized results, 30% R.H.",5.5%
same,DVS Dm @ 50% R.H. (Sorption),"[1]; summarized results, 50% R.H.",11.4%
same,DVS Dm @ 80% R.H. (Sorption),"[1]; summarized results, 80% R.H.",24.2%
same,solubility,"[2]; Buffer pH 4.5, 25° C.",5 mgfree acid/L
same,solubility,"[2]; Buffer pH 7, 25° C.",684 mgfree acid/L
same,solubility,"[2]; Buffer pH 8, 25° C.",>11594 mgfree acid/L
same,solubility,[2]; FaSSIF (37° C.) (Fasted State Simulated Intestinal Fluid),781 mgfree acid/L
same,solubility,[2]; FeSSIF (37° C.) (Fed State Simulated Intestinal Fluid),24 mgfree acid/L
same,solubility,"[2]; Water, 25° C.",6425 mgfree acid/L
